Measured values as given in paper PMC6987146, “Potent inhibition of HIV replication in primary human cells by novel synthetic polyketides inspired by Aureothin” (Scientific Reports, 2020).

Experiments:
[1] = test system: DsRed1 reporter gene activated by early viral gene expression; assay: DsRed1 reporter gene expression in HIV-exposed LC5-RIC cultures (first step of two-step assay); format: cell-based, HIV-1; parameters: unit not given here; details: 50 nM, 48 h
Text: The reporter gene in LC5-RIC cells contains the HIV promoter and other regulatory elements of HIV expression and is activated by early viral gene expression during HIV infection. Use of LC5-RIC cells in a previously described two-step assay format allows comparison of the effect of compound treatment on expression of the DsRed1 reporter gene and infectious virus production in the same cultures. As reference compound, we used an experimental inhibitor of HIV transcription called Flavopiridol. Flavopiridol blocks pTEFb, an essential co-factor for Tat-dependent activation[18],[19]. […]
Figure 2 Comparison of effects of compound #7 treatment on reporter gene expression and production of infectious virus in LC5-RIC cultures. […] Effects of compound treatment on reporter gene expression and production of infectious virus were determined in LC5-RIC cultures exposed to virus inoculum in the presence or absence of compounds for 48 h. Fluorescent signals of these primary cultures were measured to determine effects on reporter gene expression. Effects on infectious virus production were determined by transferring aliquots of the supernatants of primary cultures to uninfected LC5-RIC cells, and fluorescent signals determined in secondary plates 72 h after transfer. […]

[2] = biological target: T1, HIV integrase (Human immunodeficiency virus type 1 group M subtype B, UniProt P04585); assay: HIV Integrase Activity Assay (HIV-1 Integrase Assay Kit); format: biochemical; details: 10 µM
T1 construct: purchased XpressBio
Procedure: HIV Integrase Activity Assay. To evaluate the inhibitory effect of test compounds to counteract HIV integrase activity, the HIV-1 Integrase Assay Kit (XpressBio) was conducted according to manufacturer’s recommendations. Dolutegravir was used as reference inhibitor.

[3] = test system: HIV-2MVP10668-93; assay: Inhibition of clinical isolate HIV-2 MVP10668-93 in PBMCs; format: cell-based, HIV-type 2; details: Human immunodeficiency virus 2, PBMC
Text: Clinical isolates represented the following HIV genotypes: HIV-1MMVP899-87: HIV-type 1, Major group; HIV-1OMVP5180-91: HIV-type 1, Outlier group; HIV-2MVP10668-93: HIV-type 2; HIV-1V13-03413B: HIV-type 1, Major group/B-clade, isolate with multiple drug-resistance mutations. Depicted are the means of three independent experiments with biological triplicates (n = 3; m = 3) and standard deviations (SD).
Isolation of primary clinical HIV-isolates HIV-1MMVP899-87, HIV-1OMVP5180-91, HIV-1V13-03413B and HIV-2MVP10668-93 is described in[43]. The HIV-1 M group/B-clade isolate (HIV-1V13-03413B) was isolated from a patient with virological treatment failure. Clinical isolates were produced from HIV infected H9 cells as described.
To evaluate anti-HIV efficacies of test compounds in primary human target cells, stimulated PBMCs were seeded in 96-well plates at a density of 500,000 cells per well, different #7concentrations of the compound (serial dilutions) and virus inoculum (MOI of 0.5) added to the PBMCs and cultures incubated for 48 h. Infectious virus production was quantified by transferring 35 µl of supernatant from the PBMC cultures to LC5-RIC cells, seeded in black 96-well plates one day earlier. LC5-RIC cultures were then incubated for 72 h and analysed for DsRed1 reporter expression and anti-HIV activity calculated as described for the EASY-HIT assay.

[4] = test system: HIV Gag protein (Gag-p24); assay: Intracellular Gag by p24 ELISA and western blot in LC5-RIC cells; format: cell-based; details: HIV-1LAI, 48 h
Procedure: LC5-RIC cells were plated, treated with compounds and inoculated with virus as described for Alu-PCR above. Cells were harvested, washed with PBS and incubated in 200 µl of PBS + 5% Triton X-100 for 5 min at room temperature. Cell lysates were centrifuged for 5 min at 400 g, supernatants collected, diluted 1:10,000 and Gag-p24 was detected by p24 Antigen Capture Assay (ABLinc) according to the manufacturer’s protocol.
Western blot analysis for Gag-p24 and GAPDH was performed as described in[48], using the primary antibodies anti-hGAPDH (ThermoFisher Scientific) and anti-HIV-p24 (Calbiochem) as well as the secondary anti-mouse-peroxidase antibody (Jackson ImmunoResearch), all diluted 1:10,000. Bands were visualized by enhanced chemiluminescence and detected by Fusion FX Chemiluminescence detector. Resulting blot images were processed with Fusion FX Software (adjusting brightness and contrast) and Microsoft PowerPoint (labelling and cropping).

CN1CC[C@H](c2c(O)cc(O)c3c(=O)cc(-c4ccccc4Cl)oc23)[C@H](O)C1 [Flavopiridol]
Reporter gene expression, median (fluorescent signal normalized to untreated virus-exposed cultures) [1]: 9.33

COc1oc(C2C/C(=C/C(C)=C/c3ccc(C(F)(F)F)cc3)CO2)c(C)c(=O)c1C (stereo not drawn) [compound #7]
inhibitory effect on Integrase activity [2]: no inhibitory effects | IC50 ([3]; read-out: IC50 value, HIV-2 MVP10668-93): 3.88 nM | IC90 ([3]; read-out: IC90 value, HIV-2 MVP10668-93): 11.7 nM | Reporter gene expression, median (fluorescent signal normalized to untreated virus-exposed cultures) [1]: 55.3 | intracellular Gag levels [4]: strongly suppressed production of Gag
